Results on 7 compounds are retold here after ChEMBL document CHEMBL1145942, “Three-dimensional quantitative structure-activity relationship analyses of peptide substrates of the mammalian H+/peptide cotransporter PEPT1” (J Med Chem, 2003).

Usually Ki stands for the equilibrium dissociation constant of an inhibitor or competing ligand from its target. A higher Ki goes with lower affinity.

Where a SMILES comes first, the peptide text is derived from it. [ ]: non-standard residue; d: D form. The star is where a group is joined. Bip = N[C@@H](Cc1ccc(-c2ccccc2)cc1)C(=O)O; Nle = CCCC[C@H](N)C(=O)O; Cbz = O=C(OCc1ccccc1)*

This assay has as its target T1, Solute carrier family 15 member 1 (Homo sapiens, UniProt P46059).
T1 sequence (P46059 whole entry): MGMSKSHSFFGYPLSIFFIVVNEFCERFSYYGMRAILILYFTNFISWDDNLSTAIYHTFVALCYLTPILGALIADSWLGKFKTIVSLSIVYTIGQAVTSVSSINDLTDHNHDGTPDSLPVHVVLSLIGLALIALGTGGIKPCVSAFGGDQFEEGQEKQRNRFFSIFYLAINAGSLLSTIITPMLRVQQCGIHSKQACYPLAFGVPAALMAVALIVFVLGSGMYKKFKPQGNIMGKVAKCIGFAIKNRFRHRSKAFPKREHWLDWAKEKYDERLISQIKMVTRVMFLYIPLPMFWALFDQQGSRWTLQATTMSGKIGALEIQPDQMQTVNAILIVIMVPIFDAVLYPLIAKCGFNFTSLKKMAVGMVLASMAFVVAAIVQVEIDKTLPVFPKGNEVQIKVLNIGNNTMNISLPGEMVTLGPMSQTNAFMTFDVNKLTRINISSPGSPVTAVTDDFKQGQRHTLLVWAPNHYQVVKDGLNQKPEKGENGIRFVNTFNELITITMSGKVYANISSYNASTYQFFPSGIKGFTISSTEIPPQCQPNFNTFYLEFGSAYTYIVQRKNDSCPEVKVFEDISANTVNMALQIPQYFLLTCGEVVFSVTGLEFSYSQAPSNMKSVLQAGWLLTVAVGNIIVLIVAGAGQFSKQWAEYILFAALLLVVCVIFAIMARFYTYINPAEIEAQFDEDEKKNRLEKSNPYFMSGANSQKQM
The assay is described as follows: Inhibition constant (Ki) for human intestinal peptide carrier.

For the compound `CCCC[C@H](N)C(=O)N1CCC[C@H]1C(=O)O` (H-[Nle]-Pro-OH), affinity was put at a Ki of 160 µM. As for `CC(N)C(=O)NC1CCCCC1` (configuration not stated), the figure is 1500 µM; as for `COC(=O)c1cccc(NC(=O)C(C)N)c1` (configuration not stated), 6900 µM. Turning to `C[C@H](NC(=O)[C@H](C)NC(=O)OCc1ccccc1)C(=O)O` (Cbz-Ala-Ala-OH), the Ki amounted to 5600 µM. The same measure for `NCC(=O)N1CCC[C@H]1C(=O)O` [GLYCYL PROLINE] (H-Gly-Pro-OH): 300 µM; for `C[C@H](N)C(=O)N[C@@H](CC(=O)O)C(=O)O` (H-Ala-Asp-OH): 260 µM. As for `C[C@H](NC(=O)[C@@H](N)Cc1ccc(-c2ccccc2)cc1)C(=O)O` (H-[Bip]-Ala-OH), the figure is 20 µM.
